From patent US20250074906A1, “AZAINDOLE DERIVATIVE THAT INHIBITS H-PGDS” (SATO PHARMACEUTICAL CO., LTD., priority 2021, published 2025)

Target: T1, Recombinant human H-PGDS (Homo sapiens, UniProt O60760)
T1 construct: made in house; host or cells: E. coli
Assay: H-PGDS inhibitory activity (prostaglandin D2 production measured by LC-MS/MS)
Type: biochemical
Conditions: recombinant human H-PGDS 1.0 nM expressed in E. coli; prostaglandin H2 25 μM; 15 min preincubation and 1 min reaction on ice
Protocol: The H-PGDS inhibitory activity of each Example compound was measured according to the method described in WO 2007/041634.
Recombinant human H-PGDS (final concentration: 1.0 nM) expressed in E. coli was mixed in an assay buffer containing 20 mM Tris-HCl (pH 8.0), 2 mM magnesium chloride, 2 mM reduced glutathione, and 0.5 mg/mL γ-globulin, and 150 μL of the mixture was dispensed into an 8-strip PCR tube (BM Equipment Co., Ltd). Test compounds (Example compounds) (16.5 μL) at various concentrations dissolved in DMSO were added and the mixture was preincubated for 15 minutes on ice.
Prostaglandin H2 (final concentration: 25 μM) (Cayman Chemical) was dispensed into another 8-strip PCR tube, and the solvent was dried and solidified using a vacuum concentrator (Thermo Fisher Scientific). To the dried and solidified prostaglandin H2 was added 50 μL of the assay buffer containing H-PGDS and each test compound after the preincubation, and the mixture was reacted on ice for 1 minute. 40 μL of this mixture was added to 40 μL of a stop solution (50 mM aqueous citric acid solution containing iron chloride at a final concentration of 4 mg/mL) to stop the reaction. Then, the reaction solution was deproteinized, added to a 96 square deep well plate (SHONANMARUHACHI STEC Co., Ltd.), and the prostaglandin D2 concentration in the reaction solution was measured by LC-MS/MS. ACQUITY (registered trademark) TQD (Waters) was used as a measuring instrument.
Prostaglandin D2 production activity (%) in the group with each test compound when a value obtained by subtracting the amount of production of prostaglandin D2 in the group without enzyme, which is non-specific production of prostaglandin D2, from the amount of production of prostaglandin D2 in the group without test compound (DMSO-addition group) in each 8-strip PCR tube is 100% was calculated. From the calculated activity value, the test compound concentration that inhibits prostaglandin D2 production by 50% (IC50) was determined.

T1 sequence (O60760 whole entry): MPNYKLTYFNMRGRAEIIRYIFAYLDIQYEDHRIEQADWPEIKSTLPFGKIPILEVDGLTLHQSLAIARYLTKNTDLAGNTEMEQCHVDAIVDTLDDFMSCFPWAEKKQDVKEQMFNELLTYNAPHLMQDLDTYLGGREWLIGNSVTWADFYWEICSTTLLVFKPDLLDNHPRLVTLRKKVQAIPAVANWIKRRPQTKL

| IC50 [nM] | Structure (SMILES) |
| --- | --- |
| 0.85 | O=C(NC1CCOCC1)c1ccc(-c2ncc(F)c3[nH]ccc23)c(F)c1 [Example 38, 3-fluoro-4-(7-fluoro-1H-pyrrolo[3,2-c]pyridin-4-yl)-N-(tetrahydropyran-4-yl)benzamide] |
| 1.7 | C[C@]1(O)CC[C@H](NC(=O)c2ccc(-c3ncc(F)c4[nH]ccc34)cc2)CC1 [Example 21, 4-(7-fluoro-1H-pyrrolo[3,2-c]pyridin-4-yl)-N-(trans-4-hydroxy-4-methylcyclohexyl)benzamide] |
| 1.2 | CC(C)(O)[C@H]1CC[C@H](NC(=O)c2ccc(-c3ncc(F)c4[nH]ccc34)c(F)c2)CC1 [Example 35, 3-fluoro-4-(7-fluoro-1H-pyrrolo[3,2-c]pyridin-4-yl)-N-[trans-4-(2-hydroxypropan-2-yl)cyclohexyl]benzamide] |
| 1 | C[C@]1(O)CC[C@H](NC(=O)c2ccc(-c3nccc4[nH]ccc34)c(F)c2)CC1 [Example 5, 3-fluoro-N-(trans-4-hydroxy-4-methylcyclohexyl)-4-(1H-pyrrolo[3,2-c]pyridin-4-yl)benzamide] |
| 1.3 | N#CC12CCC(NC(=O)c3ccc(-c4nccc5[nH]ccc45)c(F)c3)(CC1)CC2 [Example 7, N-(4-cyanobicyclo[2.2.2]octan-1-yl)-3-fluoro-4-(1H-pyrrolo[3,2-c]pyridin-4-yl)benzamide] |
| 5.3 | CC(C)(O)[C@H]1CC[C@H](NC(=O)c2ccc(-c3ncc(F)c4[nH]ncc34)cc2)CC1 [Example 46, 4-(7-fluoro-1H-pyrazolo[4,3-c]pyridin-4-yl)-N-[trans-4-(2-hydroxypropan-2-yl)cyclohexyl]benzamide] |
| 0.92 | O=C(N[C@H]1CC[C@@H](O)CC1)c1ccc(-c2ncc(F)c3[nH]ccc23)c(F)c1 [Example 42, 3-fluoro-4-(7-fluoro-1H-pyrrolo[3,2-c]pyridin-4-yl)-N-(cis-4-hydroxycyclohexyl)benzamide] |
| 14 | O=C(NC12CCC(O)(CC1)CC2)c1ccc(-c2ncc(F)c3[nH]ncc23)cc1 [Example 47, 4-(7-fluoro-1H-pyrazolo[4,3-c]pyridin-4-yl)-N-(4-hydroxybicyclo[2.2.2]octan-1-yl)benzamide] |
| 4 | CC(C)(O)[C@H]1CC[C@H](NC(=O)c2ccc(-c3nccc4[nH]cnc34)cc2)CC1 [Example 44, N-[trans-4-(2-hydroxypropan-2-yl)cyclohexyl]-4-(1H-imidazo[4,5-c]pyridin-4-yl)benzamide] |
| 0.78 | CC(C)(O)[C@H]1CC[C@H](NC(=O)c2ccc(-c3nccc4[nH]ncc34)c(F)c2)CC1 [Example 49, 3-fluoro-N-[trans-4-(2-hydroxypropan-2-yl)cyclohexyl]-4-(1H-pyrazolo[4,3-c]pyridin-4-yl)benzamide] |
| 0.69 | O=C(NC12CCC(O)(CC1)CC2)c1ccc(-c2ncc(Cl)c3[nH]ccc23)cc1 [Example 17, 4-(7-chloro-1H-pyrrolo[3,2-c]pyridin-4-yl)-N-(4-hydroxybicyclo[2.2.2]octan-1-yl)benzamide] |
| 1.2 | CC(C)(O)CO[C@H]1CC[C@H](NC(=O)c2ccc(-c3nccc4[nH]ccc34)c(F)c2)CC1 [Example 9, 3-fluoro-N-[trans-4-(2-hydroxy-2-methylpropoxy)cyclohexyl]-4-(1H-pyrrolo[3,2-c]pyridin-4-yl)benzamide] |
| 1.1 | C[C@]1(O)CC[C@@H](NC(=O)c2ccc(-c3ncc(F)c4[nH]ccc34)c(F)c2)CC1 [Example 40, 3-fluoro-4-(7-fluoro-1H-pyrrolo[3,2-c]pyridin-4-yl)-N-(cis-4-hydroxy-4-methylcyclohexyl)benzamide] |
| 1.5 | Cc1cnc(-c2ccc(C(=O)N[C@H]3CC[C@H](OCC(C)(C)O)CC3)cc2)c2cc[nH]c12 [Example 4, N-[trans-4-(2-hydroxy-2-methylpropoxy)cyclohexyl]-4-(7-methyl-1H-pyrrolo[3,2-c]pyridin-4-yl)benzamide] |
| 2.4 | CC(C)(O)[C@H]1CC[C@H](NC(=O)c2ccc(-c3nccc4[nH]ncc34)cc2)CC1 [Example 43, N-[trans-4-(2-hydroxypropan-2-yl)cyclohexyl]-4-(1H-pyrazolo[4,3-c]pyridin-4-yl)benzamide] |
| 1 | O=C(NC12CCC(O)(CC1)C2)c1ccc(-c2nccc3[nH]ccc23)c(F)c1 [Example 10, 3-fluoro-N-(4-hydroxybicyclo[2.2.1]heptan-1-yl)-4-(1H-pyrrolo[3,2-c]pyridin-4-yl)benzamide] |

More lines, now with the values behind:

| Structure (SMILES) | IC50 [nM] |
| --- | --- |
| O=C(NC1CCS(=O)(=O)CC1)c1ccc(-c2ncc(F)c3[nH]ccc23)cc1 [Example 25, N-(1,1-dioxotetrahydrothiopyran-4-yl)-4-(7-fluoro-1H-pyrrolo[3,2-c]pyridin-4-yl)benzamide] | 0.7 |
| CC(C)(O)[C@H]1CC[C@H](NC(=O)c2ccc(-c3ncc(F)c4[nH]ccc34)cc2)CC1 [Example 13, 4-(7-fluoro-1H-pyrrolo[3,2-c]pyridin-4-yl)-N-[trans-4-(2-hydroxypropan-2-yl)cyclohexyl]benzamide] | 1.4 |
| O=C(NC12CCC(O)(CC1)CC2)c1ccc(-c2ncc(F)c3[nH]ccc23)cc1 [Example 16, 4-(7-fluoro-1H-pyrrolo[3,2-c]pyridin-4-yl)-N-(4-hydroxybicyclo[2.2.2]octan-1-yl)benzamide] | 0.99 |
| NC(=O)[C@H]1CC[C@H](NC(=O)c2ccc(-c3ncc(F)c4[nH]ccc34)cc2)CC1 [Example 27, N-(trans-4-carbamoylcyclohexyl)-4-(7-fluoro-1H-pyrrolo[3,2-c]pyridin-4-yl)benzamide] | 2.3 |
| O=C(NC1CCS(=O)(=O)CC1)c1ccc(-c2ncc(Cl)c3[nH]ccc23)cc1 [Example 29, 4-(7-chloro-1H-pyrrolo[3,2-c]pyridin-4-yl)-N-(1,1-dioxotetrahydrothiopyran-4-yl)benzamide] | 0.85 |
| O=C(NC12CCC(O)(CC1)C2)c1ccc(-c2ncc(F)c3[nH]ccc23)cc1 [Example 19, 4-(7-fluoro-1H-pyrrolo[3,2-c]pyridin-4-yl)-N-(4-hydroxybicyclo[2.2.1]heptan-1-yl)benzamide] | 1.4 |
| O=C(N[C@H]1CC[C@H](O)CC1)c1ccc(-c2ncc(Cl)c3[nH]ccc23)cc1 [Example 30, 4-(7-chloro-1H-pyrrolo[3,2-c]pyridin-4-yl)-N-(trans-4-hydroxycyclohexyl)benzamide] | 0.68 |
| O=C(NC1CCOCC1)c1ccc(-c2ncc(F)c3[nH]ccc23)cc1 [Example 24, 4-(7-fluoro-1H-pyrrolo[3,2-c]pyridin-4-yl)-N-(tetrahydropyran-4-yl)benzamide] | 0.86 |
| Cc1cnc(-c2ccc(C(=O)N[C@H]3CC[C@](C)(O)CC3)cc2)c2cc[nH]c12 [Example 2, N-(trans-4-hydroxy-4-methylcyclohexyl)-4-(7-methyl-1H-pyrrolo[3,2-c]pyridin-4-yl)benzamide] | 1.3 |
| C[C@]1(O)CC[C@H](NC(=O)c2ccc(-c3ncc(Cl)c4[nH]ccc34)cc2)CC1 [Example 34, 4-(7-chloro-1H-pyrrolo[3,2-c]pyridin-4-yl)-N-(trans-4-hydroxy-4-methylcyclohexyl)benzamide] | 0.86 |
| Cc1cnc(-c2ccc(C(=O)NC34CCC(O)(CC3)CC4)cc2)c2cc[nH]c12 [Example 1, N-(4-hydroxybicyclo[2.2.2]octan-1-yl)-4-(7-methyl-1H-pyrrolo[3,2-c]pyridin-4-yl)benzamide] | 0.99 |
| O=C(N[C@H]1CC[C@@H](O)CC1)c1ccc(-c2ncc(Cl)c3[nH]ccc23)cc1 [Example 33, 4-(7-chloro-1H-pyrrolo[3,2-c]pyridin-4-yl)-N-(cis-4-hydroxycyclohexyl)benzamide] | 0.77 |
| NC(=O)C12CCC(NC(=O)c3ccc(-c4nccc5[nH]ccc45)c(F)c3)(CC1)CC2 [Example 8, 4-[3-fluoro-4-(1H-pyrrolo[3,2-c]pyridin-4-yl)benzamide]bicyclo[2.2.2]octane-1-carboxamide] | 0.75 |
| O=C(NC12CCC(O)(CC1)C2)c1ccc(-c2ncc(F)c3[nH]ccc23)c(F)c1 [Example 41, 3-fluoro-4-(7-fluoro-1H-pyrrolo[3,2-c]pyridin-4-yl)-N-(4-hydroxybicyclo[2.2.1]heptan-1-yl)benzamide] | 0.89 |
| C[C@]1(O)CC[C@@H](NC(=O)c2ccc(-c3ncc(Cl)c4[nH]ccc34)cc2)CC1 [Example 31, 4-(7-chloro-1H-pyrrolo[3,2-c]pyridin-4-yl)-N-(cis-4-hydroxy-4-methylcyclohexyl)benzamide] | 1 |
| O=C(N[C@H]1CC[C@H](C2(O)CC2)CC1)c1ccc(-c2nccc3[nH]ccc23)c(F)c1 [Example 11, 3-fluoro-N-[trans-4-(1-hydroxycyclopropyl)cyclohexyl]-4-(1H-pyrrolo[3,2-c]pyridin-4-yl)benzamide] | 3.9 |
| O=C(NC1CCOCC1)c1ccc(-c2ncc(Cl)c3[nH]ccc23)cc1 [Example 28, 4-(7-chloro-1H-pyrrolo[3,2-c]pyridin-4-yl)-N-(tetrahydropyran-4-yl)benzamide] | 1.7 |
